Measured values from ChEMBL document CHEMBL1201862, “PubChem BioAssay data set” (2004).
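Following 48 hours of exposure in 96-well plates, responses at five concentrations were used to interpolate endpoints linearly. GI50 = concentration required for 50% inhibition of growth.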 Calls of active or inactive are those of the source. Cut-off read from the data, not from the text of the source: active = GI50 up to about 1.1 µM and inactive = higher.

Legend:
Assay in all cases: DTP human tumour cell line panel, 48 h
HCT-116 = system: HCT-116
EKVX = system: EKVX
UO-31 = system: UO-31
OVCAR-8 = system: OVCAR-8
U-251 = system: U-251
ACHN = system: ACHN
SF-295 = system: SF-295
SN12C = system: SN12C
HT-29 = system: HT-29
SK-MEL-5 = system: SK-MEL-5
NCI-H460 = system: NCI-H460
UACC-62 = system: UACC-62
NCI-H226 = system: NCI-H226
UACC-257 = system: UACC-257
HCT-15 = system: HCT-15
PC-3 = system: PC-3
KM12 = system: KM12
SF-539 = system: SF-539
DU-145 = system: DU-145

Structure (SMILES) | GI50 (HCT-116) | GI50 (EKVX) | GI50 (UO-31) | GI50 (OVCAR-8) | GI50 (U-251) | GI50 (ACHN) | GI50 (SF-295) | GI50 (SN12C) | GI50 (HT-29) | GI50 (SK-MEL-5) | GI50 (NCI-H460) | GI50 (UACC-62) | GI50 (NCI-H226) | GI50 (UACC-257) | GI50 (HCT-15) [µM] | GI50 (PC-3) | GI50 (KM12) | GI50 (SF-539) | GI50 (DU-145)
C#Cc1cccc(N2C(=O)CC(=P(c3ccccc3)(c3ccccc3)c3ccccc3)C2=O)c1 | 32.6 µM (inactive) | 44.2 µM (inactive) | > 100 µM (inactive) | > 100 µM (inactive) | 71.8 µM (inactive) | > 100 µM (inactive) | > 100 µM (inactive) | > 100 µM (inactive) | 39.6 µM (inactive) | 25.6 µM (inactive) | 97.5 µM (inactive) | 29.3 µM (inactive) | 58.2 µM (inactive) | 51.4 µM (inactive) |  |  |  |  | 
O=c1[nH]nc(-c2ccccc2)n1-n1cnnc1 | > 100 µM (inactive) | > 100 µM (inactive) | > 100 µM (inactive) | > 100 µM (inactive) | > 100 µM (inactive) | > 100 µM (inactive) | > 100 µM (inactive) | > 100 µM (inactive) | > 100 µM (inactive) | > 100 µM (inactive) | > 100 µM (inactive) | > 100 µM (inactive) | > 100 µM (inactive) | > 100 µM (inactive) | > 100 | > 100 µM (inactive) | > 100 µM (inactive) | > 100 µM (inactive) | 
C[C@@H]1CC[C@@H](C)[C@](C)(CCc2ccoc2)C/C=C\C=C/1C(=O)O | > 50 µM (inactive) | > 50 µM (inactive) | > 50 µM (inactive) | > 50 µM (inactive) | > 50 µM (inactive) | > 50 µM (inactive) | > 50 µM (inactive) | > 50 µM (inactive) | > 50 µM (inactive) | > 50 µM (inactive) | > 50 µM (inactive) | > 50 µM (inactive) | > 50 µM (inactive) | > 50 µM (inactive) | > 50 | > 50 µM (inactive) | > 50 µM (inactive) | > 50 µM (inactive) | 
CC(=O)CCC(=O)CC(O)(C(F)(F)F)C(F)(F)F | 16.9 µM (inactive) | > 10 µM (inactive) | 14.5 µM (inactive) | 19.6 µM (inactive) | 17.2 µM (inactive) | 24.8 µM (inactive) | 12.4 µM (inactive) | 20.9 µM (inactive) | 17.8 µM (inactive) | 18.1 µM (inactive) | 20.7 µM (inactive) | 16.8 µM (inactive) | 11.6 µM (inactive) | 17.8 µM (inactive) | 20.1 |  | 15.9 µM (inactive) | 16.6 µM (inactive) | 20.5 µM (inactive)
O=C(NCCCN(CCCCN(CCCNC(=O)C(F)(F)F)Cc1ccccc1)Cc1ccccc1)C(F)(F)F | 11.5 µM (inactive) | 12.6 µM (inactive) | 4.63 µM (inactive) | 14 µM (inactive) | > 10 µM (inactive) | 16.5 µM (inactive) | 16.5 µM (inactive) | 15.4 µM (inactive) | 6.49 µM (inactive) | 3.39 µM (inactive) | 10.4 µM (inactive) | 16.9 µM (inactive) | 17.2 µM (inactive) | 5.07 µM (inactive) | 12.4 |  | 13.2 µM (inactive) | 13.5 µM (inactive) | 19.7 µM (inactive)
Nc1ccc2nc(-c3cccc(C(F)(F)F)c3)cc(O)c2c1 |  | 44.7 µM (inactive) | 37.4 µM (inactive) | 47 µM (inactive) | 49.3 µM (inactive) | 80.2 µM (inactive) |  | 61.8 µM (inactive) | 34.1 µM (inactive) | 22.9 µM (inactive) | 29.8 µM (inactive) | 53.2 µM (inactive) |  | 51.2 µM (inactive) | 34.8 | 23.8 µM (inactive) | 36.2 µM (inactive) | 19.6 µM (inactive) | 
COCOCCCCCO[Si](C)(C)C(C)(C)C | 12.9 µM (inactive) | 20 µM (inactive) | 20.5 µM (inactive) | 19.5 µM (inactive) | 15.8 µM (inactive) | 14.4 µM (inactive) | 14.8 µM (inactive) | 17.2 µM (inactive) | 14.4 µM (inactive) | 16.5 µM (inactive) | 19.6 µM (inactive) | 25.3 µM (inactive) |  | 16.5 µM (inactive) | 17.7 |  | 23.2 µM (inactive) | 19.1 µM (inactive) | 
